Laboratory results as given in patent publication US9863701B2, “Compositions and methods for atmospheric spray freeze drying” (Aerosol Therapeutics, LLC, priority 2013, dated 2018).

Experiments:
[1] = Moisture content of powder after atmospheric spray freeze drying, original equipment; format: physicochemical; settings: 15 wt % mannitol aqueous solution; dried 1 hr at around -15° C., then raised to room temperature within 30 minutes
Description: The apparatus is allowed to run for approximately 5 to 15 minutes to reach the desired temperature in the chamber 110, 210, 310 via gas cooled by a refrigeration system providing gas flow into the chamber 110 through the porous wall. The aqueous solution or suspension of the substances to be dried is then sprayed using the atomizer 102, 202, 302 and frozen simultaneously at a chosen temperature by the surrounding curtain of liquid nitrogen generated from ring nozzle 218, 318 or an equivalent such as cryogenic flow from nozzles 118 through porous sidewalls of chamber 110. The frozen powder is conveyed down to the exit filter 122, 222, 322 by the concurrent downstream flow. After spray freezing, drying begins. The frozen powder collected on the exit filter 122, 222, 322, at the bottom is dried continuously at atmospheric pressure until the target moisture of the frozen powder is removed by the cold desiccated gas stream. After atmospheric spray-freeze drying, a loose powder remains on the exit filter 122, 222, 322. This powder can easily be broken up into free flowing, dry porous particles usually of approximately the same size and shape as the original frozen droplets.
In one example, powder was produced using the method described above. […] The moisture content was measured to be only 0.9 wt %.

[2] = Moisture content of powder after ASFD run, second generation equipment; format: physicochemical; settings: 10% BGG aqueous solution, 50 ml; spray gas 5 SCFM, drying 20 SCFM; after three hours and thirty minutes
Description: A typical ASFD run to dry Bovine Gamma Globulin (BGG) was conducted per a stepwise procedure like the following example. A solution of BGG was prepared such that the BGG constituted 10% by weight of an aqueous solution. Once the inner chamber was cooled to a temperature of −140° F., 50 ml of solution was sprayed at a rate of 1 ml per second and at a pressure of 40 psi into the reactor chamber after the flow of cooling gas had been decreased to 5 SCFM. A flow rate of 20 SCFM was then set for drying. Temperature during the first hour was set at 30° F., and increased by five degrees at hour two and hour three. […] After three hours and thirty minutes the powder was removed from the chamber and tested for water content.

Compound	moisture content [1] [wt %]	moisture content [2] [%]
OC[C@@H](O)[C@@H](O)[C@H](O)[C@H](O)CO [mannitol]	0.9	–
Bovine Gamma Globulin [BGG]	–	4.2
